Source: patent publication EP0155799A2, “Paulomycin analogues and their preparation” (THE UPJOHN COMPANY, priority 1984, dated 1985)
In brackets after ≈: the same amount, converted by molar mass. Read-outs that look alike come from different tables or passages of the source.

Tests used:
[1] = Solubility (characterization); assay type: physicochemical; settings: solvents as named in the value
[2] = system: Klebsiella pneumoniae; test: MIC, standard microplate agar assay, PYG agar pH 6 (aerobic bacteria); assay type: cell-based; settings: UC58, 24 h; Klebsiella pneumoniae UC 58, pH 6; read-out: MINIMAL INHIBITORY CONCENTRATION
Experimental: (§1) The antibacterial assay is a standard microplate agar assay using PYG agar, pH 6. PYG agar consists of the following ingredients:
(§2) The MIC is determined by standard methods. The inocula are overnight cultures of the test organisms, diluted so that the final population contains approximately 10^5 cells/ml. The agar plates are incubated at 28°C to 37°C for 24 hrs. The lowest antibiotic concentration which allows no growth=MIC or minimum inhibitory concentration.
as §2, with “growth-HIC” for “growth=MIC”

[3] = system: Streptococcus faecalis; test: as above; assay type: cell-based; settings: Enterococcus faecalis, UC694, 24 h; Streptococcus faecalis UC 694, pH 6; read-out: MINIMAL INHIBITORY CONCENTRATION
Experimental: as §1, §2
as §2, with “growth-HIC” for “growth=MIC”

[4] = system: Pseudomonas aeruginosa; test: as above; assay type: cell-based; settings: read-out: MINIMAL INHIBITORY CONCENTRATION
Experimental: as §1, §2
as §2, with “growth-HIC” for “growth=MIC”

[5] = system: Staphylococcus aureus; test: as above; assay type: cell-based; settings: read-out: MINIMAL INHIBITORY CONCENTRATION
Experimental: as §1, §2
as §2, with “growth-HIC” for “growth=MIC”

[6] = system: Klebsiella oxytoca; test: as above; assay type: cell-based; settings: read-out: MINIMAL INHIBITORY CONCENTRATION
Experimental: as §1, §2
as §2, with “growth-HIC” for “growth=MIC”

[7] = system: Escherichia coli; test: as above; assay type: cell-based; settings: read-out: MINIMAL INHIBITORY CONCENTRATION
Experimental: as §1, §2
as §2, with “growth-HIC” for “growth=MIC”

[8] = system: Serratia marcescens; test: as above; assay type: cell-based; settings: for MIC: Serratia marcescens, UC6888, 24 h, pH 6, Serratia marcescens UC 6888, pH 6, read-out: MINIMAL INHIBITORY CONCENTRATION
Experimental: as §1, §2
as §2, with “growth-HIC” for “growth=MIC”

[9] = system: Proteus vulgaris; test: as above; assay type: cell-based; settings: UC30264, 24 h; Proteus vulgaris UC 30264, pH 6; read-out: MINIMAL INHIBITORY CONCENTRATION
Experimental: as §1, §2
as §2, with “growth-HIC” for “growth=MIC”

[10] = system: Citrobacter freundii; test: as above; assay type: cell-based; settings: UC3507, 24 h; Citrobacter freundii UC 3507, pH 6; read-out: MINIMAL INHIBITORY CONCENTRATION
Experimental: as §1, §2
as §2, with “growth-HIC” for “growth=MIC”

[11] = system: Enterobacter cloacae; test: as above; assay type: cell-based; settings: read-out: MINIMAL INHIBITORY CONCENTRATION
Experimental: as §1, §2
as §2, with “growth-HIC” for “growth=MIC”

[12] = system: Staphylococcus aureus U.C. 6685; test: Antibacterial activity in vivo, experimentally infected mouse; settings: sc, dosed subcutaneously, infected experimentally with Staphylococcus aureus U.C. 6685, read-out: CD50 (the source's name)
[13] = UC6432, 24 h, Pseudomonas aeruginosa UC 6432, pH 6
[14] = UC9191, 24 h, Pseudomonas aeruginosa UC 9191, pH 6
[15] = UC3665, 24 h, Staphylococcus aureus UC 3665, pH 6
[16] = UC6675, 24 h, Staphylococcus aureus UC 6675, pH 6
[17] = UC6685, 24 h, Staphylococcus aureus UC 6685, pH 6
[18] = UC9383, 24 h, Klebsiella oxytoca UC 9383, pH 6
[19] = UC9384, 24 h, Klebsiella oxytoca UC 9384, pH 6
[20] = UC311, 24 h, Escherichia coli UC 311, pH 6
[21] = UC9379, 24 h, Escherichia coli UC 9379, pH 6
[22] = UC9380, 24 h, Escherichia coli UC 9380, pH 6
[23] = UC9381, 24 h, Enterobacter cloacae UC 9381, pH 6
[24] = UC9382, 24 h, Enterobacter cloacae UC 9382, pH 6

CC=C(N=C=S)C(=O)OC1C(COC(C)=O)OC(C2(O)CC(=O)C(O)=C(C(N)=O)C2=O)C(O)C1OC1CC(OC)C(O)(C(C)OC(=O)CC(C)C)C(C)O1 (stereo not drawn) [Paulomycin A2]
Solubility [1]: Soluble in lower alcohols, ketones, ethyl acetate, chloroform, methylene chloride; less soluble in ether; insoluble in saturated hdyrocarbon solvents | MIC [2]: > 64 µg/mL | MIC [3]: 0.25 µg/mL (≈ 0.318 µM) | MIC [4, 13]: > 64 µg/mL | MIC [4, 14]: > 64 µg/mL | MIC [5, 15]: 0.12 µg/mL (≈ 0.153 µM) | MIC [5, 16]: 0.12 µg/mL (≈ 0.153 µM) | MIC [5, 17]: 0.12 µg/mL (≈ 0.153 µM) | MIC [6, 18]: > 64 µg/mL | MIC [6, 19]: > 64 µg/mL | MIC [7, 20]: > 64 µg/mL | MIC [7, 21]: > 64 µg/mL | MIC [7, 22]: > 64 µg/mL | MIC [8]: > 64 µg/mL | MIC [9]: 32 µg/mL (≈ 40.7 µM) | MIC [10]: > 64 µg/mL | MIC [11, 23]: > 64 µg/mL | MIC [11, 24]: > 64 µg/mL

CC=C(N=C=S)C(=O)OC1C(COC(C)=O)OC(C2(O)CC(=O)C(O)=C(C(N)=O)C2=O)C(O)C1OC1CC(OC)C(O)(C(C)OC(=O)C(C)CC)C(C)O1 (stereo not drawn) [Paulomycin A]
MIC [2]: > 64 µg/mL | MIC [3]: 0.25 µg/mL (≈ 0.318 µM) | MIC [4, 13]: > 64 µg/mL | MIC [4, 14]: > 64 µg/mL | MIC [5, 15]: 0.12 µg/mL (≈ 0.153 µM) | MIC [5, 16]: 0.12 µg/mL (≈ 0.153 µM) | MIC [5, 17]: 0.12 µg/mL (≈ 0.153 µM) | MIC [6, 18]: > 64 µg/mL | MIC [6, 19]: > 64 µg/mL | MIC [7, 20]: > 64 µg/mL | MIC [7, 21]: > 64 µg/mL | MIC [7, 22]: > 64 µg/mL | MINIMAL INHIBITORY CONCENTRATION ([8]; Serratia marcescens UC 6888, pH 6): 64 µg/mL | MIC [8]: > 64 µg/mL | MIC [9]: 16 µg/mL (≈ 20.3 µM) | MIC [10]: > 64 µg/mL | MIC [11, 23]: > 64 µg/mL | MIC [11, 24]: > 64 µg/mL

CC=C(N=C=S)C(=O)OC1C(COC(C)=O)OC(C2(O)CC(=O)C(O)=C(C(N)=O)C2=O)C(O)C1OC1CC(OC)C(O)(C(C)=O)C(C)O1 (stereo not drawn) [Paulomycin E]
Solubility [1]: Soluble in lower alcohols, ketones, ethyl acetate, chloroform, methylene chloride; less soluble in ether; insoluble in saturated hdyrocarbon solvents | MIC [2]: > 64 µg/mL | MIC [3]: 1 µg/mL (≈ 1.43 µM) | MIC [4, 13]: > 64 µg/mL | MIC [4, 14]: > 64 µg/mL | MIC [5, 15]: 1 µg/mL (≈ 1.43 µM) | MIC [5, 16]: 1 µg/mL (≈ 1.43 µM) | MIC [5, 17]: 1 µg/mL (≈ 1.43 µM) | MIC [6, 18]: > 64 µg/mL | MIC [6, 19]: > 64 µg/mL | MIC [7, 20]: > 64 µg/mL | MIC [7, 21]: > 64 µg/mL | MIC [7, 22]: > 64 µg/mL | MIC [8]: > 64 µg/mL | MIC [9]: > 64 µg/mL | MIC [10]: > 64 µg/mL | MIC [11, 23]: > 64 µg/mL | MIC [11, 24]: > 64 µg/mL

CCC(C)C(=O)OC(C)C1(O)C(C)OC(OC2C(O)C(C3(O)CC(=O)C(O)=C(C(N)=O)C3=O)OC(COC(C)=O)C2OC(=O)C(NC(=S)SC[C@H](NC(C)=O)C(=O)O)C(C)SCCO)CC1OC (stereo partly drawn) [R2=CH2CH2OH R3=CH2CHCOOH | NHCOCH3]
ED50 [12]: 15.3 mg/kg

CCC(C)C(=O)OC(C)C1(O)C(C)OC(OC2C(O)C(C3(O)CC(=O)C(O)=C(C(N)=O)C3=O)OC(COC(C)=O)C2OC(=O)C(NC(=S)SCCO)C(C)SC[C@H](NC(C)=O)C(=O)O)CC1OC (stereo partly drawn) [R2=CH2CHCOOH | NHCOCH3 R3=CH2CH2OH]
ED50 [12]: 8 mg/kg

CCC(C)C(=O)OC(C)C1(O)C(C)OC(OC2C(O)C(C3(O)CC(=O)C(O)=C(C(N)=O)C3=O)OC(COC(C)=O)C2OC(=O)C(NC(=S)SCCO)C(C)SC(CC(=O)O)C(=O)O)CC1OC (stereo not drawn) [R2=CHCOOH | CH2COOH R3=CH2CH2OH]
ED50 [12]: 44 mg/kg
